Experimental data: paper PMC9394307, “Discovery of Putative Dual Inhibitor of Tubulin and EGFR by Phenotypic Approach on LASSBio-1586 Homologs” (Pharmaceuticals, 2022)

Experiments:
[1] = system: H1975 cells; assay: Cell cycle analysis by flow cytometry (Guava Muse Cell Cycle Kit); type: cell-based, human; settings: H1975, 48 h of treatment; CA-4 0.04 µM, LASSBio-1586 2.0 µM, LASSBio-1735 0.08 µM, LASSBio-2070 3.0 µM, LASSBio-2074 1.5 µM; vs DMSO 0.1%
Description: Changes in the cell cycle are important aspect in tumorigenesis. Therefore, the identification of the steps related to inhibition of cell multiplication is an important process during the discovery of new antitumoral drug candidates. […] Flow cytometry was used for cell cycle analysis to estimate the percentages of a cell population in the different phases of the cell cycle. The analysis was performed using the lung cancer cell line H1975 treated with CA-4 (1, 0.04 µM), LASSBio-1586 (2, 2.0 µM), LASSBio-1735 (3, 0.08 µM), LASSBio-2070 (10, 3.0 µM) and LASSBio-2074 (11, 1.5 µM).
(§1) Flow cytometry was applied to help elucidate the mechanism of action of the studied compounds, both to verify the cell cycle phase and to verify the action on EGFR protein kinase.
The anti-tubulin effect was evaluated by seeding H1975, H292 and PC-9 into 6-well plates at a density of 2 × 10^5 per well. […] Cells were harvested and stained according to the protocols of The Guava Muse® Cell Cycle Kit (MCH100106) to quantitatively measure the percentage of cells in the G2/M phases of the cell cycle and the EGFR-RTK Activation Dual Detection Kit (MCH200102) (Luminex®) to measure EGFR phosphorylation in relation to total EGFR expression in the cell population, according to the manufacturer’s instructions for use in test kits using a Guava Muse® Cell Analyzer (Luminex®). Each experiment was performed at least three times independently.

[2] = system: EGFR in PC-9 cell line (EGFR^L858R); assay: Guava Muse EGFR-RTK Activation Dual Detection Kit, flow cytometry; type: cell-based, human; settings: PC-9, LASSBio-2070 0.03 µM
Description: as §1
The anti-tubulin effect was evaluated by seeding H1975, H292 and PC-9 into 6-well plates at a density of 2 × 10^5 per well. The cells were treated with the selected compounds for 72 h. Cells were harvested and stained according to the protocols of The Guava Muse® Cell Cycle Kit (MCH100106) to quantitatively measure the percentage of cells in the G2/M phases of the cell cycle and the EGFR-RTK Activation Dual Detection Kit (MCH200102) (Luminex®) to measure EGFR phosphorylation in relation to total EGFR expression in the cell population, according to the manufacturer’s instructions for use in test kits using a Guava Muse® Cell Analyzer (Luminex®). Each experiment was performed at least three times independently.

[3] = system: SF-295; design: method as in PMID 24614859, PMID 30006065, PMID 25564377; settings: cited from earlier work
[4] = system: β-tubulin; design: method as in PMID 24614859, PMID 30006065, PMID 25564377; settings: cited from earlier work
[5] = system: HCT-116; design: method as in PMID 24614859, PMID 30006065, PMID 25564377; settings: cited from earlier work
[6] = system: HL-60; design: method as in PMID 24614859; settings: cited from earlier work

Row | SMILES | cell cycle distribution (G0/G1, S, G2/M) [1] | modulation of EGFR activity in a phenotypic model [2] | proliferation of SF-295 in the Hollow Fiber Assay [3] | ability to inhibit β-tubulin [4] | proliferation of HCT-116 in the Hollow Fiber Assay [5] | cytotoxic potency against HL-60 compared with LASSBio-1586 (2) [6]
1 | COc1cc(C(=O)N(Cc2ccccc2)/N=C/c2ccccc2)cc(OC)c1OC [LASSBio-2070 (10), (E)-N-benzyl-N’-benzylidene-3,4,5-trimethoxybenzohydrazide] | increased cells in phase G2/M | inhibiting the phosphorylation of EGFR | – | – | – | –
2 | COc1cc(C(=O)N/N=C/c2ccccc2)cc(OC)c1OC [LASSBio-1586 (2), (E)-N’-benzylidene-3,4,5-trimetoxybenzohydrazide] | increased cells in phase G2/M | – | able to decrease proliferation | confirmed | able to decrease proliferation | –
3 | CCOC(=O)CN(/N=C/c1ccccc1)C(=O)c1cc(OC)c(OC)c(OC)c1 [LASSBio-2074 (11), Ethyl (E)-N-(benzylideneamino)-N-(3,4,5-trimethoxybenzoyl)glycinate] | increased cells in phase G2/M | – | – | – | – | –
4 | COc1cc(C(=O)N(C)/N=C/c2ccccc2)cc(OC)c1OC [LASSBio-1735 (3), (E)-N’-benzylidene-3,4,5-trimethoxy-N-methylbenzohydrazide] | increased cells in phase G2/M | – | – | – | – | cytotoxic potency superior to LASSBio-1586 (2)
